Data published in US20080318993A1 (Endo Pharmaceuticals, Inc., priority 2007, published 2008).
“And” between values parts separate entries of the source, which are not always exact repeats. Equal entries are not always repeated. Where two headings read alike, the source gives them in different places.

Assays:
[1] = 10 mg oral dose, cited from earlier work
[2] = orally administered (oral solution), hydrochloride, cited from earlier work
[3] = Example 5: urinary excretion of oxymorphone and metabolites in hepatic impairment vs healthy controls; conditions: for mean amount excreted in the urine: percent of administered dose, through 120 hours
Excerpt: (§1) While in the clinic, the subjects were to refrain from strenuous physical activity.

[4] = Example 5: plasma pharmacokinetics of EN3202 20 mg in hepatic impairment vs healthy controls; conditions: for AUC / AUC(0-t) / Cmax / Tmax / half-life: human, plasma, oral, 20 mg; for AUC(0-t): AUCT; for Tmax: median (range); for increase in average AUC relative to controls: arithmetic means; for AUC increase relative to healthy controls / Cmax increase relative to healthy controls: log-transformed comparison
Procedure: as §1
All study medications were supplied by the sponsor. […] A single 20 mg dose EN3202 was administered following an overnight fast (from approximately 22:00 on the evening prior to dose administration) at approximately 08:00, and participants were not allowed to eat until at least four hours after the dose.
All doses were administered with 240 mL of ambient water. Participants were instructed to drink all of the water.
Pharmacokinetic parameters were calculated using model-independent methods.
All pharmacokinetic results are summarized using appropriate descriptive statistics. […] One-way ANOVA was conducted using the model PKVAR=group, where group was mild hepatic impairment, moderate-severe hepatic impairment, or healthy control. Point estimates of the impaired versus control group differences and the corresponding 90% confidence limits were constructed.

[5] = moderate-severe hepatic impairment
[6] = Moderate-Severe Impairment, mean (SD)
[7] = Subject 006 (Child-Pugh Class B)
[8] = Subject 007 (Child-Pugh Class A)
[9] = Subject 009 (Child-Pugh Class B)
[10] = Subject 010 (Child-Pugh Class B)
[11] = Subject 011 (Child-Pugh Class C)

## CN1CC[C@]23c4c5ccc(O)c4O[C@H]2C(=O)CC[C@@]3(O)[C@H]1C5.Cl [Oxymorphone, 14-hydroxydihydromorphinone hydrochloride]
[1]
  recovery in the first 24 hours, of the amount recovered: 82%
  recovery in the first 24 hours, of the dose: ~42%
  unchanged oxymorphone recovered in the urine: 1.9%
[1]; 120-hour collection interval, 10 healthy subjects, average
  administered dose recovered in the urine: 49%
[1]; urine
  Conjugated oxymorphone, average of the administered dose: 44.1%
[2]
  oral / average absolute bioavailability: about 10%
[2]; listed as oxymorphone
  oral / average absolute bioavailability: approximately 10%
[3]; after single 20 mg dose
  urinary excretion essentially complete by: by the end of the 48 to 72 hour collection interval
[3]; control group
  mean amount excreted in the urine: 0.5%
[3]; discussion statement
  administered dose excreted unchanged in the urine: Less than 1%
[3]; mild hepatic impairment
  mean amount excreted in the urine: 1.2%
[3]; [5]
  increase in the amount excreted in the urine: approximately 8 fold
  mean amount excreted in the urine: 4.1%
[4]; Healthy Controls, mean (SD)
  λz: 0.0970 (0.0540) hr^−1
  AUC(0-t): 18 ng·h/mL
  Cmax: 1.73 ng/mL
[4]; Healthy Controls, mean (SD), hydrochloride
  CL/F: 21.15 (13.54) L/min
[4]; Healthy Controls, mean (SD), listed as oxymorphone, hydrochloride
  CL/F: 21.15 L/min
[4]; Mild Impairment, mean (SD)
  CL/F: 13.30 (5.81) L/min
  λz: 0.0830 (0.0392) hr^−1
  AUC(0-t): 30 ng·h/mL
  Cmax: 3.98 ng/mL
[4]; [6]
  CL/F: 7.17 (5.08) L/min
  λz: 0.0970 (0.0365) hr^−1
  AUC(0-t): 104 ng·h/mL
  Cmax: 9.16 ng/mL
[4]; [7]
  CL/F: 7.34 L/min
  Cmax: 4.31 ng/mL
[4]; [8]
  CL/F: 4.45 L/min
  Cmax: 11.4 ng/mL
[4]; [9]
  CL/F: 1.38 L/min
  Cmax: 19.6 ng/mL
[4]; [10]
  CL/F: 7.63 L/min
  Cmax: 3.72 ng/mL
[4]; [11]
  CL/F: 1.33 L/min
  Cmax: 23.6 ng/mL
[4]; AUC, Healthy Controls, mean (SD), single 20 mg EN3202, fasting
  AUC: 20.6 ng·h/mL
[4]; AUC, Mild Impairment, mean (SD), single 20 mg EN3202, fasting
  AUC: 32.1 ng·h/mL
[4]; AUC, Moderate-Severe Impairment, mean (SD), single 20 mg EN3202, fasting
  AUC: 106 ng·h/mL
[4]; AUC, Subject 006 (Child-Pugh Class B)
  AUC: 45.4 ng·h/mL
[4]; AUC, Subject 007 (Child-Pugh Class A)
  AUC: 74.8 ng·h/mL
[4]; AUC, Subject 009 (Child-Pugh Class B)
  AUC: 241 ng·h/mL
[4]; AUC, Subject 010 (Child-Pugh Class B)
  AUC: 43.7 ng·h/mL
[4]; AUC, Subject 011 (Child-Pugh Class C)
  AUC: 250 ng·h/mL
[4]; range among subjects, control group
  Cmax: 0.64 to 2.83 ng/mL
[4]; range among subjects, mild impairment
  Cmax: 0.86 to 11.4 ng/mL
[4]; range among subjects, moderate-severe impairment
  Cmax: 1.66 to 23.6 ng/mL
[4]; Individual AUC results, range, healthy controls
  AUC: 6.18 to 33.9 ng·h/mL
[4]; Individual AUC results, range, subjects with mild impairment
  AUC: 15.3 to 74.8 ng·h/mL
[4]; Individual AUC results, range, subjects with moderate-severe impairment
  AUC: 24.9 to 250 ng·h/mL
[4]; Healthy Controls
  Tmax: 3.5 h
[4]; Mild Impairment
  Tmax: 1.75 h
[4]; Moderate-Severe Impairment
  Tmax: 1.5 h
[4]; T½, Healthy Controls, mean (SD)
  half-life: 9.98 h
[4]; T½, Mild Impairment, mean (SD)
  half-life: 11.8 h
[4]; T½, Moderate-Severe Impairment, mean (SD)
  half-life: 8.04 h
[4]; mean AUC after excluding Subject 007, mild group
  AUC: 23.6 ng·h/mL
[4]; median AUC, control group
  AUC: 23.8 ng·h/mL
[4]; median AUC, mildly-impaired group
  AUC: 24.7 ng·h/mL
[4]; plasma elimination half-life, Subject 009
  half-life: 6.96 h
[4]; plasma elimination half-life, Subject 011
  half-life: 10.7 h
[4]; mild hepatic impairment
  increase in average AUC relative to controls: approximately 1.56 fold
  AUC increase relative to healthy controls: 1.52 fold
[4]; mild impairment
  elimination rate constant ratio, 90% confidence limits: 0.58-1.31
  elimination rate constant, ratio to healthy controls: 0.87
  Cmax increase relative to healthy controls: 1.68 fold
[4]; moderate-severe impairment
  elimination rate constant ratio, 90% confidence limits: 0.74-1.66
  elimination rate constant, ratio to healthy controls: 1.11
  increase in average AUC relative to controls: 5.13 fold
  Cmax increase relative to healthy controls: 3.41 fold
[4]; moderate-to-severe hepatic impairment, hydrochloride
  AUC increase relative to healthy controls: 3.61 fold and 3,6 fold
[4]; two of six subjects with moderate or severe liver disease
  AUC increase in individual subjects: up to 10 fold
